Data published in US20230183226A1, “AKT3 MODULATORS” (Georgiamune LLC, priority 2020, published 2023).

Target: Akt3 (Homo sapiens, UniProt Q9Y243)
Test: Akt3 inhibition and activation activity (Foxp3 induction assay / Jurkat-FoxP3 luciferase reporter assay)
Format: cell-based
Details: Table 2
Experimental: Sorted or enriched (Miltenyi magnetic separation) CD4 conventional T cells (Tconvs−CD4+/CD25) from C57/Bl6 mice were used for the induction of iTregs. A 10 µg/mL plate-bound anti-CD3 antibody (50 ul per well for 96-well plate), […] of soluble anti-CD28 antibody, 100 IU/mL of IL2 and 5 ng/mL of TGF-β in absence or presence of different concentrations of drug (usually titrating from 0.01 uM to 10 uM) were used. As negative control for induction, samples without TGF-β were used.
After 3 days of culture in presence of stimulation, TGF-β and drug, cells were stained with fixable live/dead cell stain (Life Technologies, NY) for gating and exclusion of toxic doses. The mouse Foxp3 buffer kit was used to fix and permeabilize cells according to the manufacturer's instructions (BD Bioscience, San Jose, Calif.). The anti-CD4 antibody and anti-Foxp3 antibody were used to stain the cells. After staining, cells were acquired using flow cytometer.
Cells Culture Process: Prepare a 50 ml conical tube and a T-25 culture flask with 5 ml of pre-warmed Thaw Medium 2 (no G418). Quickly thaw cells in a 37° C. water bath with constant and slow agitation. Immediately transfer the entire contents to the conical tube with Thaw Medium 2 (no G418) and centrifuge the cells at 200×g for 3 minutes.

Sequence of Akt3 (Q9Y243 2-479): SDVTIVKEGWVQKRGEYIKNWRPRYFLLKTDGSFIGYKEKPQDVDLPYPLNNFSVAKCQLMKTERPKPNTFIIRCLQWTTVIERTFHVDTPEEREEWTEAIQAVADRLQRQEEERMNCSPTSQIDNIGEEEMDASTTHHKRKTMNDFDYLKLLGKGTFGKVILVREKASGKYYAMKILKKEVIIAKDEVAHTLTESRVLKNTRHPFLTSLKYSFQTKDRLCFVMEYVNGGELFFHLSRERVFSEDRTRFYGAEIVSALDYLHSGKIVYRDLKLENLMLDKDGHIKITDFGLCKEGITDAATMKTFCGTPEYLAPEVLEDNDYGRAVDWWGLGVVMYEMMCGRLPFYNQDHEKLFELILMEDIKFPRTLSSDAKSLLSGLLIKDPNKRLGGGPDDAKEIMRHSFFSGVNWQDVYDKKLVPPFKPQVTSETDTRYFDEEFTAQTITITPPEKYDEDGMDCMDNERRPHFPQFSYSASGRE

## 6-(2,6-dimethylmorpholino)-2-methyl-N-(4-(5-(2-methylpyridin-4-ylamino)-1H-benzo[d]imidazol-2-yl)phenyl)quinolin-4-amine [Compound 128]
  EC50: < 50 nM
